One may read the IC50 as the point on the concentration scale where inhibition reaches its midpoint. Usually half-life stands for the time needed for the level to fall by half in the phase considered. Lower therefore signals fast loss.

Data set [1] has as its target Histone deacetylase 1 (Homo sapiens, UniProt Q13547).
Description: Inhibition of HDAC1 (unknown origin)
In data set [2] the target is T1, Protein deacetylase HDAC6 (Homo sapiens, UniProt Q9UBN7).
T1 sequence (Q9UBN7 whole entry): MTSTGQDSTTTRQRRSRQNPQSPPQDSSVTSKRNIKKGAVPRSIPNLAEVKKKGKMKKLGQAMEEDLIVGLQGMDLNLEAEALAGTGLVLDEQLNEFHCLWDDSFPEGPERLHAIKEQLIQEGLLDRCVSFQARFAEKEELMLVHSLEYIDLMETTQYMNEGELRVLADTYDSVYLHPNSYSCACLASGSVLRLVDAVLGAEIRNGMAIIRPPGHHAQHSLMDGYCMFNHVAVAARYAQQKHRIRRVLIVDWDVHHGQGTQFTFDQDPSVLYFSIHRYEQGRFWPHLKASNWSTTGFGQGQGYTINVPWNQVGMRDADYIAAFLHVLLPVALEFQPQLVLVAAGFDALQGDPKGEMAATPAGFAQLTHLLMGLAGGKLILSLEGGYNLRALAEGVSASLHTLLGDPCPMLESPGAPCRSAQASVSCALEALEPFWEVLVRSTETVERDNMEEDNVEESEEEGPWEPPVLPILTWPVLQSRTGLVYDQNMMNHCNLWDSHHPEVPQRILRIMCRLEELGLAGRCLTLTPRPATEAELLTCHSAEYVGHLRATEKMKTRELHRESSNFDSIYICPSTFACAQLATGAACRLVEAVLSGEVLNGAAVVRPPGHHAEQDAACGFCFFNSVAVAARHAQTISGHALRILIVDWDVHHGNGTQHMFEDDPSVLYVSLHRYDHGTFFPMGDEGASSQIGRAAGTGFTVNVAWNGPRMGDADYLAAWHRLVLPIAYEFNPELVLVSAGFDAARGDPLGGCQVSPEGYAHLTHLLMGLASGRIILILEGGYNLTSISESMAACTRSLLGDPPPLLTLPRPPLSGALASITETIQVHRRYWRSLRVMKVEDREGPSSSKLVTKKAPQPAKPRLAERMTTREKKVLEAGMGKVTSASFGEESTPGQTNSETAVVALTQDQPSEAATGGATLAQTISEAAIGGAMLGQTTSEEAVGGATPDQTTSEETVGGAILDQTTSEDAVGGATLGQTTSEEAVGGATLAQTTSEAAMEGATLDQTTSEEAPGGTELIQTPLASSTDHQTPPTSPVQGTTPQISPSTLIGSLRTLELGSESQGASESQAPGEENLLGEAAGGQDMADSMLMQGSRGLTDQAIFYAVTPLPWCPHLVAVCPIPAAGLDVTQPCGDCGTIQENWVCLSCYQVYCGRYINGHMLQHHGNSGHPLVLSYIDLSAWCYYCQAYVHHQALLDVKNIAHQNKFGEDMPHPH
Description: Inhibition of HDAC6 (unknown origin)

Data set [3] is filed under the species Homo sapiens. Nature of the data set: Selectivity index, ratio of IC50 for HDAC1 (unknown origin) to HDAC6 (unknown origin).
For data set [4], the system named is HEK293. The experiment in a line: Selectivity index, ratio of IC50 for human HDAC1 expressed in HEK293/T17 cells (unknown origin) to human HDAC6 expressed in HEK293/T17 cells. Type of data set: cell-based.
In data set [5] the test system is SM1. Nature of the data set: Cytotoxicity in mouse SM1 cells assessed as reduction in cell viability up to 25 uM. Type of data set: functional, cell-based. To be noted: dose microM <=25.
For data set [6], the system named is HEK293. The experiment in a line: Selectivity index, ratio of IC50 for human HDAC2 expressed in HEK293/T17 cells (unknown origin) to human HDAC6 expressed in HEK293/T17 cells. Type of data set: cell-based.
In data set [7] the test system is HEK293. Nature of the data set: Selectivity index, ratio of IC50 for human HDAC5 expressed in HEK293/T17 cells (unknown origin) to human HDAC6 expressed in HEK293/T17 cells. It counts as cell-based.
A short description of data set [8]: Half life in PBS by LC-MS/MS analysis. It counts as physicochemical.
For data set [9], the system named is HEK293. The experiment in a line: Selectivity index, ratio of IC50 for human HDAC4 expressed in HEK293/T17 cells (unknown origin) to human HDAC6 expressed in HEK293/T17 cells. Type of data set: cell-based.
In data set [10] the test system is HEK293. The experiment in a line: Selectivity index, ratio of IC50 for human HDAC6 expressed in HEK293/T17 cells (unknown origin) to human HDAC6 expressed in HEK293/T17 cells. It counts as cell-based.
The nature of data set [11]: Protein binding in human plasma at 10 uM incubated for 1 hr by LC-MS/MS analysis. Type of data set: ADME, cell-free. To be noted: read-out: PPB (converted).
Data set [12] concerns the target T2, Histone deacetylase 11 (Homo sapiens, UniProt Q96DB2).
T2 sequence (Q96DB2 whole entry): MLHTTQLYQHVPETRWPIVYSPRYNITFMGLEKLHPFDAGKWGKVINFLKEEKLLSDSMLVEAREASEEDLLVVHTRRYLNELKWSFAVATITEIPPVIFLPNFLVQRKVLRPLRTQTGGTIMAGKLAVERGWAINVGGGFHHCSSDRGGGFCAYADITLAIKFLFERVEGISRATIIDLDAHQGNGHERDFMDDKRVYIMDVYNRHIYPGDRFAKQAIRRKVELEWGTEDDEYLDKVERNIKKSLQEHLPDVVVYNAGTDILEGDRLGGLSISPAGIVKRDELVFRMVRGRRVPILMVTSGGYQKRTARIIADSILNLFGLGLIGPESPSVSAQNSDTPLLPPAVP
Nature of the data set: Inhibition of human HDAC11 expressed in HEK293/T17 cells pre-incubated for 10 mins before […] addition and measured after 30 mins by fluorescence-based assay. Type of data set: cell-based.

The target in data set [13] is T3, Protein deacetylase HDAC6 (Homo sapiens) (UniProt Q9UBN7).
T3 sequence (whole entry): T1 sequence (Q9UBN7 whole entry)
Nature of the data set: Inhibition of human HDAC6 in human WM164 cells increase in acetylated alpha-tubulin levels at 0.1 to 10 uM by immunoblot analysis. It counts as cell-based. Conditions: dose microM 0.1-10. For orientation: A western blot detects proteins with antibodies after separation by electrophoresis.

A short description of data set [14]: Half life in SGF by LC-MS/MS analysis. It counts as ADME.
Data set [15] deals with HEK293. The experiment in a line: Selectivity index, ratio of IC50 for human HDAC3 expressed in HEK293/T17 cells (unknown origin) to human HDAC6 expressed in HEK293/T17 cells. Type of data set: cell-based.
Data set [16] has as its system HEK293. Nature of the data set: Selectivity index, ratio of IC50 for human HDAC9 expressed in HEK293/T17 cells (unknown origin) to human HDAC6 expressed in HEK293/T17 cells. It counts as cell-based.
Data set [17] concerns HEK293. Nature of the data set: Selectivity index, ratio of IC50 for human HDAC7 expressed in HEK293/T17 cells (unknown origin) to human HDAC6 expressed in HEK293/T17 cells. Type of data set: cell-based.
Data set [18] concerns HEK293. Nature of the data set: Selectivity index, ratio of IC50 for human HDAC8 expressed in HEK293/T17 cells (unknown origin) to human HDAC6 expressed in HEK293/T17 cells. Type of data set: cell-based.
A short description of data set [19]: Half life in human plasma at 10 uM by LC-MS/MS analysis. Type of data set: ADME, cell-free.
Data set [20] in a line: Half life in rat liver microsome at 10 uM by LC-MS/MS analysis. Type of data set: ADME. Conditions: liver microsomes.
Data set [21] has as its target Histone deacetylase (Homo sapiens) (UniProt Q13547+O15379+Q9UBN7+Q92769+Q9UQL6+Q8WUI4+Q9BY41+Q96DB2+P56524+Q9UKV0+Q969S8). The experiment in a line: Inhibition of human HDAC in human WM164 cells increase in acetylated histone H3 levels at 0.1 to 10 uM by immunoblot analysis. It counts as cell-based. Conditions: dose microM 0.1-10.
Data set [22] concerns SM1. Nature of the data set: Potentiation of antitumor immune response in C57BL/6 mouse harboring mouse SM1 cells assessed as decrease in tumor burden at 25 mg/kg, ip dosed 5 days per week before starting 15 mg/kg, ip anti-PD1 immune checkpoint blockade therapy measured on day 14. It counts as functional, organism-based. To be noted: time 14.0 day.
The target in data set [23] is T3, Protein deacetylase HDAC6 (Homo sapiens). The experiment in a line: Inhibition of human HDAC6 in human WM164 cells assessed as decrease in STAT3 Y705 phosphorylation at 5 uM pre-incubated before IL6 stimulation for 20 mins by immunoblot analysis. It counts as cell-based.
Data set [24] relates to SM1. Nature of the data set: Potentiation of antitumor immune response in C57BL/6 mouse harboring mouse SM1 cells assessed as decrease in tumor burden at 25 mg/kg, ip dosed 5 days per week before starting 15 mg/kg, ip anti-PD1 immune checkpoint blockade therapy measured on day 20. It counts as functional, organism-based. To be noted: time 20.0 day.

Activity calls are given as the source filed them.

Chain of Histone deacetylase 1 (Q13547 whole entry): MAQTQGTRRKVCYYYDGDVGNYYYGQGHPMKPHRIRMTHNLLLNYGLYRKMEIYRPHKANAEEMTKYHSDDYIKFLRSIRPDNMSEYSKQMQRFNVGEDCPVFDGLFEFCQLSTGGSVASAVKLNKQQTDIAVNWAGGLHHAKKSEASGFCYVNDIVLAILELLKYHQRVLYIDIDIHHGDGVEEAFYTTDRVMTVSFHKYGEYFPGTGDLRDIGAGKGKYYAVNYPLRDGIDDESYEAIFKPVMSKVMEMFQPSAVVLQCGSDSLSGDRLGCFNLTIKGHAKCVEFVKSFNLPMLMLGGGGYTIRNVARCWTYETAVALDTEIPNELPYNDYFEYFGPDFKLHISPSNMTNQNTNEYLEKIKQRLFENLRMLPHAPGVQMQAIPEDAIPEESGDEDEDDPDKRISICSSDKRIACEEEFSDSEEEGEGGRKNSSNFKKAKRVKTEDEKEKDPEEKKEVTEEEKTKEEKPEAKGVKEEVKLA

For the compound `O=C(NO)c1ccc(CN(CCCO)C(=O)Cc2ccccc2)cc1`, the IC50 in data set [1] is 1130 nM; in data set [2], 31 nM. Also, in data set [3], the Ratio IC50 is 36.
Regarding `O=C(NO)c1ccc(CN(CCCCO)C(=O)Nc2ccccc2)cc1`, the Ratio IC50 in [4] amounted to 296; in [6], 536; in [7], 18300; in [9], 27900; in [10], 1; in data set [15], 1160. Further, the Ratio IC50 in data set [16] stood at 59500; in data set [17], 3870; in data set [18], 956. In addition, the result in data set [5] was inactive. The half-life in data set [8] was > 24 h; in data set [14], > 5 h. The fraction unbound at 1 h, 10 µM in data set [11] was 0.52. In data set [12], the concentration for half-maximal inhibition (IC50) is > 50000 nM. Also, the inhibition result in data set [13] was “Dose-dependent effect”. The results for the half-life at 10 µM in data set [19] and in [20] were > 5 h and 3.3 h, respectively. The inhibition entry in data set [21] is “Active”.
Consider `O=C(NO)c1cnc(NC2(c3ccccc3)CCC(F)(F)CC2)nc1`, for which, in data set [3], the Ratio IC50 was 260.
As for `CCCCN(Cc1ccc(C(=O)NO)cc1)C(=O)Nc1ccccc1` [NEXTURASTAT A], the half-life was > 24 h in data set [8] and > 5 h in data set [14]. In addition, the fraction unbound at 1 h, 10 µM in data set [11] is 0.11. Also, in data set [13], the inhibition result was “Dose-dependent effect”. The half-life at 10 µM in data set [19] is > 5 h; in data set [20] it was 7.05 h. In addition, the TGI entry in [22] was “Active”. Moreover, the inhibition entry in data set [23] and in data set [21] was “Active” throughout. Moreover, the result in data set [24] was Active.
As for `C[C@H](NC(=O)[C@H](CC(=O)NC(C)(C)C)NC(=O)c1ccc(C(=O)NO)cc1)C(=O)NCc1ccccc1`, the figures for the 50% inhibitory concentration (IC50) in data set [1] and in data set [2] were 6900 nM and 270 nM, respectively. The Ratio IC50 in data set [3] worked out at 26.
Take `CCCCN(Cc1ccc(C(=O)NO)cc1)C(=O)Nc1ccc(CN)cc1`: the Ratio IC50 in data set [4] was 89; in data set [6], 312; in data set [7] it was 11200; in data set [9], 25700; in data set [10] it was 1; in data set [15], 492. The Ratio IC50 worked out at 19200 in data set [16], 10000 in data set [17] and 682 in data set [18]. For the same compound, the results for the half-life in data set [8] and in data set [14] were > 24 h and > 5 h, respectively. In data set [11], the fraction unbound at 1 h, 10 µM was 0.53. The IC50 in data set [12] was > 50000 nM. In [13], the inhibition result is “Dose-dependent effect”. Besides, the half-life at 10 µM in data set [19] is > 5 h; in data set [20], 2.88 h. Also, in data set [21], the inhibition result is “Active”.

The values are drawn from ChEMBL document CHEMBL4725372, “Rational Design of Suprastat: A Novel Selective Histone Deacetylase 6 Inhibitor with the Ability to Potentiate Immunotherapy in Melanoma Models” (J Med Chem, 2020).
